# Measurements published in paper PMC6934184, “Selective DNA-PKcs inhibition extends the therapeutic index of localized radiotherapy and chemotherapy” (The Journal of Clinical Investigation, 2019).
# Tested on: SJSA-1
# Test: clonogenic survival with etoposide
# Assay type: cell-based, human
# Conditions: NU5455 1 μM, 24 hours
# Method: Cell line γH2AX and 53BP1 foci immunofluorescence and quantitation
# Cells grown on coverslips or in 96-well plates were treated with 1 or 5 µM NU5455 or DMSO 1 hour prior to irradiation (0, 2.5 or 10 Gy) using an RS 320 X-ray Research System (Gulmay Medical). At set timepoints (15 or 30 minutes, or 1, 4, 5, 6, or 24 hours post-irradiation), cells were washed and fixed in methanol or 3% paraformaldehyde (PFA). […] In A549 and Calu-6, cells were Hoechst stained (5 µg/ml), and the average numbers of γH2AX and 53BP1 foci per cell were quantified from 400 nuclei per sample using an In Cell analyzer 1000 (GE Healthcare). For MCF7 cells, coverslips were mounted using Vectashield mounting medium with DAPI (Vector Labs) and imaged using a Leica TCS SPE confocal fluorescence microscope. Total fluorescence intensity was determined using ImagePro Plus 5.0 software (Media Cybernetics). […]
# Cells were washed in phosphate-buffered saline (PBS), trypsinized and counted. […] Colonies were fixed using Carnoys fixture (75% v/v methanol, 25% v/v acetic acid, Fisher), stained with crystal violet (0.4% w/v in water), and counted using a ColCount automated colony counter (Oxford Optronics). Cell survival was calculated as a percentage of the untreated control. […]
structure (smiles),measurement,value
CN(C(=O)CN1CCOCC1)c1ccc2sc3c(-c4cccc5c(=O)cc(N6CC7CCC(C6)O7)oc45)cccc3c2c1 [NU5455],"Fold potentiation of etoposide (LD80, SER80)",4.1 fold
